# How the values were obtained:
# [1] = Oral spray bitterness masking taste test by volunteers with Coptis chinensis standard bitter solution; format: in vivo, healthy volunteers; set-up: key to Reduction of bitterness: drop in bitterness value (0.5–5.5 scale) from initial; conditions: for inhibition in vivo at 0.2 %: Homo sapiens, read-out: Reduction range; for inhibition in vivo at 0.2 % / Reduction range: relative to original bitterness 4.0; for Reduction of bitterness: original bitterness average 4.0, average of 31 cases; for bitterness value after drug: initial bitterness 4.0, 16 cases
# Experimental: Purpose of the experiment: it is to screen out compounds that take effect within 5 seconds, last for 30-120 seconds, and it is expected, by using such kind of compounds, the taste of the drug cannot be felt during the duration (30-120 seconds) when taking the drug.
# Principle of the experiment: simulate the process of taking medicine and using the taste masking agents, first spray about 0.5 ml of oral spray on the throat (3 times), and after it takes effect quickly, taste 10 ml of bitter standard solution to screen drugs that can be used in advance and can mask the bitter taste.
# • 1: Volunteer screening. The research team strictly screened the recruited volunteers and finally selected healthy volunteers as subjects. They signed informed consent forms before the experiment; • 2: Standard bitterness sample preparation. The bitterness of the samples was divided into five levels, and each level was assigned a certain bitterness value range; • 3: The sensory standard was corrected by the oral taste evaluation method, that is, the sensory standard was corrected by comparing the taste evaluation of the volunteers with the established bitterness value of the reference sample group. Specific steps: when the volunteers are doing the oral tasting test, the reference solutions of various concentrations are placed in the tasting cups, and the volunteers hold one of the solutions in their mouths, time it, and rinse their mouths by using the solution so that the bitter taste perception area at the root and sides of the tongue can fully feel the bitter taste of the drug. […] Then dilute all the selected taste masking drugs, prepare the solution, take 10 ml and put it into the spray bottle, spray it into the mouth 3 times, stay for 5 seconds, drink 10 ml of standard bitterness solution, feel and record the bitterness value, keep the standard bitterness solution in the mouth until the bitterness rises, and record the retention time. • 5: Quality control. […] Since the experimental objects are biological samples and there are individual differences between different subjects, there may be individual outliers in the experimental test data. The Grubbs test method was used to exclude outliers in the data, and then the experimental data were plotted in tables and curves for data analysis.
# It is necessary to process the experimental data. Specifically, the Grubbs test method was used to perform a circular test and elimination of outliers on the data, and a bilateral test was used to eliminate outliers in the oral test. Considering the characteristics of biological samples, the detection level was selected as 0.1 and the elimination level was selected as 0.05 in this experiment.
# The experimental medicinal material processing method mentioned in the above technical scheme is as follows: Preparation of bitter standard solution, use 10 g of Coptis chinensis powder, add 100 ml of pure water above 90 degrees, stir, let stand for 20 minutes, take the supernatant for use, determine the standard bitterness of 4.0 degrees by oral tasting, dilute 5 times, determine the standard bitterness of 2.0 degrees, dilute 2.0 degrees again 5 times, determine the standard bitterness of 0.5 degrees. Compare with the bitterness scoring table, (level 1 means “no bitterness or almost no bitterness”, the bitterness value is 0.5˜1.5; level 2 means “slightly bitter”, the bitterness value is 1.5˜2.5; level 3 means “bitter but acceptable”, the bitterness value is 2.5˜3.5; level 4 means “very bitter, but still tolerable”, the bitterness value is 3.5˜4.5; level 5 means “unbearable bitterness”, the bitterness value is 4.5˜5.5). Adjust the judgment and cognition of bitterness.
# The standard bitterness solution used in this experiment to verify the experimental effect is a 4.0 degree bitterness solution of Coptis chinensis prepared according to the above method.
# [2] = target: T1, sodium ion channel of Trpm5 bitter receptor (Mus musculus, UniProt Q9JJH7); experiment: Immunofluorescence experiment of sodium ion channels in mouse tongue cells stimulated with bitter agent; format: cell-based, mice; conditions: for blocking effect on the sodium ion channel (result analysis in words): judged from change of sodium ion fluorescence after bitter drug
# T1 construct: Put the removed tongue in a 2 ml EP tube, add 1-1.5 ml of 0.25% trypsin solution; from tissue; host or cells: cells dissociated with trypsin from mouse tongue
# T1 sequence (Q9JJH7 1-1158): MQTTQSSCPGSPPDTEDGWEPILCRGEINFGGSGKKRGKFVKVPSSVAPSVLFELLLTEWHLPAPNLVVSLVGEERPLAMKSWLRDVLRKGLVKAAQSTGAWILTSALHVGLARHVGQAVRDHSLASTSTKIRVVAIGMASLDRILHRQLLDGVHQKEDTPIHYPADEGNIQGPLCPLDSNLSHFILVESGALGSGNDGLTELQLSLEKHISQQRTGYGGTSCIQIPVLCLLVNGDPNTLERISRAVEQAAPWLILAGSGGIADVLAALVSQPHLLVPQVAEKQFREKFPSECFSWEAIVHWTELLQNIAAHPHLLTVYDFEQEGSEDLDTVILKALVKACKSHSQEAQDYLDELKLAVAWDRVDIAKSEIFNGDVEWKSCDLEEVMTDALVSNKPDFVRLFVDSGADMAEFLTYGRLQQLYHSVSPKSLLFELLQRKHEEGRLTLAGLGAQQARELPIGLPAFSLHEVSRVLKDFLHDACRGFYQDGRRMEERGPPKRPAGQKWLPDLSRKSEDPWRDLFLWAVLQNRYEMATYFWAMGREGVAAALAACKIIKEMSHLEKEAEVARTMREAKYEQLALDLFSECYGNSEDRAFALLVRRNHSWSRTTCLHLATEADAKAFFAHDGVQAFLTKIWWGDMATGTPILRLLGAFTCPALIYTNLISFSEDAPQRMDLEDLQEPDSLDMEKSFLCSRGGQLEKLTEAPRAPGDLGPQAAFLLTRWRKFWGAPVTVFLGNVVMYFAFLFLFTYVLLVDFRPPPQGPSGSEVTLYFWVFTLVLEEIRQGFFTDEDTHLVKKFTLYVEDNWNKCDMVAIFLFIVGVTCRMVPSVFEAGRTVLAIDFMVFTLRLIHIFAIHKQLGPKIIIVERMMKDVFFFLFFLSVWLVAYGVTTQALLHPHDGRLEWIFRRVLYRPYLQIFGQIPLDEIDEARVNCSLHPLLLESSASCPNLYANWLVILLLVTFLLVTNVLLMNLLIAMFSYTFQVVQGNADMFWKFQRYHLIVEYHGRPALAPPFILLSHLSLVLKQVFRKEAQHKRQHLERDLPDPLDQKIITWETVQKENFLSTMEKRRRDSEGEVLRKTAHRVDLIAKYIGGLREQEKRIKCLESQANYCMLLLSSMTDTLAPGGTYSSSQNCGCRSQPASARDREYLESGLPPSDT
# Experimental: The mouse was killed by dislocation, and the tongue was removed (minimizing tongue bleeding), disinfected with alcohol for 2 minutes (adding sodium citrate for anticoagulation), and washed with D-Hanks solution or rinsed with 10 ml of saline solution drawn by a syringe.
# Take out the centrifuge tube from the constant temperature incubator, shake for 2 minutes, blow the undigested tongue several times with the gun tip, take out the tongue, cover it with the EP tube cap, put it in a centrifuge, centrifuge at 3000 rpm for 3 minutes, discard the supernatant, add cell culture medium (containing 10% inactivated serum), blow and disperse the cells, and place it in a 37° C. constant temperature incubator for 30 min to allow the cells to recover.
# (1) Take out the prepared ENG-2 AM storage solution and warm it to room temperature for use, keeping it away from light. The concentration of the pre-prepared stock solution is 2 mM and it is stored at −18° C. for future use.
# (2) Dilute the ENG-2 AM+DMSO stock solution to a […] working solution using serum-free culture medium.
# (3) Load the probe in a serum-free culture medium containing an appropriate concentration of AM probe.
# Take out the cells from the incubator, centrifuge, and discard the culture medium. Wash the cells once with D-Hanks solution, centrifuge, and discard the culture medium. Add 1 ml of culture medium again, then add 300 ul of sodium ion probe dilution solution, blow and disperse the cells, and incubate the cells at room temperature or 37° C. for 1 hour.
# At the end of incubation, centrifuge at 100 rpm for 2 minutes, discard the supernatant, add 500 ul of cell culture medium without AM probe, blow and disperse the cells, and incubate for 20-60 min to ensure that the cells completely deesterify the AM group.
# (4) Take 10 ul of incubation solution and drop it into the center of the cell counting plate, cover it with a slide, and observe it under a fluorescence microscope.
# (5) Use a low-power microscope to find the cells, open the fluorescence path, detect the fluorescence signal with a fluorescence microscope, change to a high-power microscope, find the appropriate observation cells, observe and take pictures to record the initial signal.
# (2) Experimental drugs: Add 5 ul of the tested drug to one side of the cover glass on the cell counting plate, use absorbent paper to absorb water on the opposite side, let the solution soak the cells, and then use a fluorescence microscope to observe and take 3-5 photos, one every 1-2 minutes; then add 5 ul of the standard bitter drug to one side of the cover glass on the cell counting plate, use absorbent paper to absorb water on the opposite side, let the solution soak the cells, and then use a fluorescence microscope to observe and take 3-5 photos, one every 1-2 minutes.
# (5) Data analysis: Use Image J-Fiji software to analyze the images, compare the average values of the fluorescence pixels, remove the base number and compare them in the table, draw FIGS. 4-6, and use SPSS18.0 to perform chi-square tests to compare the differences between the data groups.
# [3] = 0.2% solution in 60% ethanol as oral spray
# [4] = Bitterant 60 s (2% metronidazole solution)
# [5] = Bitterant 120 s (2% metronidazole solution)
# [6] = Bitterant 180 s (2% metronidazole solution)
# [7] = Initial (before addition of drug), sodium ion dye ENG-2 AM
# [8] = Bitterant 240 s (2% metronidazole solution)
Compound,average value of fluorescence brightness ([2]; Addition of drugs),"average value of fluorescence brightness, base number removed ([2]; Addition of drugs)","average value of fluorescence brightness [2, 4]","average value of fluorescence brightness, base number removed [2, 4]","average value of fluorescence brightness [2, 5]","average value of fluorescence brightness, base number removed [2, 5]","average value of fluorescence brightness [2, 6]","average value of fluorescence brightness, base number removed [2, 6]","average value of fluorescence brightness, base number removed ([2]; Initial)","average value of fluorescence brightness [2, 7]",blocking effect on the sodium ion channel (result analysis in words) [2],other results
"CCOC(=O)C1=C(COCCN)NC(C)=C(C(=O)OC)C1c1ccccc1Cl (stereo not shown) [Amlodipine, reference compound]",,,,,,,,,,,,"inhibition in vivo at 0.2 % [1, 3]: 0%"
O=S(=O)([O-])[O-].[Mg+2] [Magnesium sulfate],,,,,,,,,,,,"Reduction of bitterness [1, 3]: 1.5; Reduction range [1, 3]: 37.50%; Duration > ([1]; 0.2% solution in 60% ethanol as oral spray, retention time until bitterness rises): > 20 s; bitterness value after drug ([1]; concentration 0.001% in 60% ethanol): 3.5; bitterness value after drug ([1]; concentration 0.005% in 60% ethanol): 3.2; bitterness value after drug ([1]; concentration 0.02% in 60% ethanol): 2.8; bitterness value after drug ([1]; concentration 0.10% in 60% ethanol): 2.5; bitterness value after drug ([1]; concentration 0.50% in 60% ethanol): 2.3"
"COC(=O)C1=C(C)NC(C)=C(C(=O)OC)C1c1ccccc1[N+](=O)[O-] [Nifedipine, reference compound]",,,,,,,,,,,,"inhibition in vivo at 0.2 % [1, 3]: 0%"
CC1CC(O)CC(C)(C)C1 (stereo not shown) [Trimethylcyclohexanol],,,,,,,,,,,,"Reduction of bitterness [1, 3]: 0; Reduction range [1, 3]: 0.00%"
Hydroxyvanillic acid,28.082,0.093,27.496,−0.493,27.697,−0.292,27.919,−0.07,0,27.989,have poor effects and do not have bitterness masking effect,
"CC1CCC(C(C)C)C(O)C1 (stereo not shown) [Menthol, 2-isopropyl-5-methylcyclohexanol]",22.118,−0.435,22.04,−0.513,21.924,−0.629,21.907,−0.646,0,22.553,can block the sodium ion channel of Trpm5 bitter receptor,"average value of fluorescence brightness [2, 8]: 20.562; average value of fluorescence brightness, base number removed [2, 8]: −1.991"
"NCCCC(=O)O [GABA, 4-aminobutyric acid]",27.367,0.082,27.287,0.002,27.21,−0.075,27.127,−0.158,0,27.285,have poor effects and do not have bitterness masking effect,
"CC1CCC(C(C)C)C(OC(=O)C(C)O)C1 (stereo not shown) [Menthyl lactate, 2-hydroxypropionic acid-5-methyl-2-(1-methylethyl)cyclohexyl ester]",28.425,−0.113,28.141,−0.397,27.831,−0.707,28.191,−0.347,0,28.538,can block the sodium ion channel of Trpm5 bitter receptor,

# Reference: patent publication US20250108023A1, “Products for Masking Bitterness” (The Third People's Hospital of Henan Province, priority 2023, published 2025)
